From US20260337229A1 (Seattle Children's Hospital (d/b/a Seattle Children's …, priority 2022, published 2026) come the findings set out here.

Usually Tmax stands for the time from dosing to the highest level. As usually defined, the half-life is how long it takes for the measured level to halve. Usually Vd stands for the apparent volume that relates the amount in the body to the concentration in plasma or blood. Broadly, the Cmax is the highest concentration seen after dosing. The term EC50 denotes the concentration that produces a half-maximal response.

Where two headings read alike, the source gives them in different places. Starred links: 1 amine or outer side, 2 acyl side, 3 side chain; linkers in the order of their positions; H or OH if unused. Positions of bridges follow the written chain, without caps; N, C: chain ends. Non-standard residues stand in square brackets, D forms with d. Residues, ends and D or L forms follow the SMILES beside them. Groups on a side chain read outwards from the residue. *: point of attachment. PEG8 = NCCOCCOCCOCCOCCOCCOCCOCCOCCC(=O)O; Palmitoyl = CCCCCCCCCCCCCCCC(=O)*; hCys = N[C@@H](CCS)C(=O)O; X1 = O=C(CC[*:2])[*:1]

Series [1] can be described thus: Pharmacokinetics, iv, rat. It is filed as in vivo.
Description: Whole blood samples were immediately centrifuged at 4° C.; separated plasma (~100 μL) was pipetted into micro centrifuge tubes, flash frozen on dry ice, and stored at −80° C. Quantitative analysis plasma samples were performed by Alturas Analytics (Moscow, ID, USA) via peptide extraction from acidified plasma with acetonitrile followed by LC-MS/MS analysis.
The nature of series [2]: 22-day long-term study in DIO rats (body weight, food and water intake). The class given is in vivo, male Sprague Dawley rats. Conditions: in words. The text has this:
For studies utilizing a DIO rat model, male Sprague Dawley rats (CD-IGS rats, strain 001; approximately 4 weeks of age; 51-75 g) purchased from Charles River Laboratories (Wilmington, MA, USA). These rats were fed a diet of 60% calories from fat (Formula: D12492; Research Diets, Inc., New Brunswick, NJ, USA; 5.21 kcal/g) for 4.5 to 6 months prior to the start of the study to induce obesity. For studies utilizing lean rats, male Sprague Dawley rats (CD-IGS rats, strain 001; 226-250 g) purchased from Charles River Laboratories (Wilmington, MA, USA). All rats had ad libitum access to food and water and were kept on a 12 h light/12 h dark cycle. Animals were individually housed in a temperature (22±1° C.) and humidity (57±4%) controlled room. All body weight measurements were taken just prior to the start of the dark cycle.
(§1) Male Sprague Dawley rats were fed 60% HF diet (D12492; Research Diets, Inc; New Brunswick, NJ; 5.21 kcal/g) for 16 weeks prior to the start of the study. Rats were then singly house in BioDAQ cages (Research Diets, Inc.; New Brunswick, NJ) and allowed to acclimate to their new environment for 10 days. Baseline measures of body weight, food intake and water intake were taken for one week to balance the groups and create feeding pairs. Each group (n=6 animals/group) averaged 714.47±81.6 g at baseline (Table 3).
(§2) Effects of ASK2131 were compared to a vehicle-treated group, OXT-treated group, as well as a pair-fed control group. Three days of baseline measures were taken before subcutaneous treatment administration began on day 4 of the study. Assessments were made to body weight, food intake and water intake. ASK2131 was administered at 50 nmol/kg throughout the entire study period. […] OXT-treated animals were started at 50 nmol/kg dose for two days, followed by 150 nmol/kg, then 300 nmol/kg, until ending at 600 nmol/kg for the remainder of the study.

For series [3], the target named is T1, hOXTR (Homo sapiens, UniProt P30559).
T1 construct: expressed in transfected cells; host or cells: CHO (hOTR NFAT bLac)
T1 sequence (P30559 1-389): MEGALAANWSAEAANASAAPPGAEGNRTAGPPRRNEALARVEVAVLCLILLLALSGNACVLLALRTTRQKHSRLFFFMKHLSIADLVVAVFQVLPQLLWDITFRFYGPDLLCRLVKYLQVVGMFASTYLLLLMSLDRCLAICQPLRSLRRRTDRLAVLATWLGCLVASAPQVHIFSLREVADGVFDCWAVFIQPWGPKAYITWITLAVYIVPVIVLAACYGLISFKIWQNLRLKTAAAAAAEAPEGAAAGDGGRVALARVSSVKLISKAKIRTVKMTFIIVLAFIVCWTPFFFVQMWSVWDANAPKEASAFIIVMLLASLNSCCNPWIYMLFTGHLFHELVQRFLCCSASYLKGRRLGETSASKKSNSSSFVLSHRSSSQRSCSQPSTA
Briefly: Ca2+ flux fluorometric imaging plate reader assay at OXTR. It is filed as cell-based. As for the experimental part:
In a typical experimental protocol, stably transfected Chinese hamster ovary (CHO) hOTR NFAT bLac cells were plated at a density of 10,000 cells/well in a 384-well plate in growth medium (Dulbecco's modified Eagle's medium+Glutamax (Thermo Fisher Scientific, Waltham, MA), 10% dialyzed fetal bovine serum). The next day calcium-sensitive, fluo-4 dye (Invitrogen, Carlsbad, CA) and probenecid (Invitrogen; 2.5 mM) was dissolved in 20 ml warm dye loading buffer (Hanks' balanced salt solution with calcium and magnesium, 20 mM Hepes, pH 7.4) and added to each well. Plates were incubated for 60-120 minutes in a 37° C. cell incubator to allow cells to uptake the dye. […] After dye-loading, the cell plates were placed on the fluorometric imaging plate reader. A total of […] of test compound was added to the […] of dye on the cells, and intracellular Ca^2+ was monitored for 90 seconds. Intracellular Ca^2+ concentrations were calculated as the maximum increase over basal levels. Responses were normalized to control responses. Data were analyzed by curve fitting.
(Calcium flux is commonly read through the fluorescence of an indicator in the cells.)

The target of series [4] is T2, human V1a receptor (Homo sapiens, UniProt P37288).
T2 construct: expressed in transfected cells; host or cells: CHO
T2 sequence (P37288 whole entry): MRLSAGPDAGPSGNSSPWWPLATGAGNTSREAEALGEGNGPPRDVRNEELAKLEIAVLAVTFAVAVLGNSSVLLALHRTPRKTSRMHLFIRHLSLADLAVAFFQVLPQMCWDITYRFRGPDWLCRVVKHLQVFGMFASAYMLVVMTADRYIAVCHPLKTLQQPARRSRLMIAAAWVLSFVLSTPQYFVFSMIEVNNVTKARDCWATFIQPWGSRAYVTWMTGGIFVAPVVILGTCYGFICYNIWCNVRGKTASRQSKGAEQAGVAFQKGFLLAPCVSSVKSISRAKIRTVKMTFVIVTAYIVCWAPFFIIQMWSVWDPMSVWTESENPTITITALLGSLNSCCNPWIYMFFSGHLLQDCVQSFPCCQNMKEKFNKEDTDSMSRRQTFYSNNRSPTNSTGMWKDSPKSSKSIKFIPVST
Briefly: Cytosolic Ca2+ mobilization agonist assay at human V1a receptor. To be noted: stably transfected CHO cells; read-out: hV1aR, EC50. It is filed as cell-based. As for the experimental part: The cells were suspended in DMEM buffer (Invitrogen, Carlsbad, CA) complemented with 0.1% FCSd, then distributed in microplates at a density of 4.5×10^4 cells/well. The fluorescent probe (Fluo4 Direct, Invitrogen, Carlsbad, CA) mixed with probenicid in HBSS buffer (Invitrogen, Carlsbad, CA) complemented with 20 mM HEPES (Invitrogen, Carlsbad, CA) (pH 7.4) was then added into each well and equilibrated with the cells for 60 min at 37° C. then 15 min at 22° C. The assay plates were positioned in a microplate reader (CellLux, PerkinElmer) followed by the addition of the test compound ASK2131, reference agonist or HBSS buffer (basal control), and the measurements of changes in fluorescence intensity which varies proportionally to the free cytosolic Ca^2+ ion concentration. For stimulated control measurements, AVP at 1 μM was added in separate assay wells. The results were expressed as a percent of the control response to 1 μM AVP. The standard reference agonist was AVP, which was tested in each experiment at several concentrations to generate a concentration-response curve from which its EC50 value was calculated.

Series [5] in a line: Blood parameters after 22-day treatment of DIO rats. The class given is in vivo, male Sprague Dawley rats.
Description: as §1, §2
Cardiac puncture was used to collect blood for analysis 2 h post final injection. Commercially available enzyme-linked immunosorbent assays (ELISA) were used for quantitative assessment of leptin (cat. #EZRL-83K; MilliporeSigma, Burlington, MA, USA), insulin (cat. #EZRMI-13K; MilliporeSigma, Burlington, MA, USA), and adiponectin (cat. #EZRAPD-62K MilliporeSigma, Burlington, MA, USA). Serum samples were diluted 1:500 for the adiponectin ELISA using the sample diluent provided with the kit. All ELISAs were completed following the manufacturers recommendations. Levels of glucose, cholesterol (total, HDL, and calculated LDL), triglycerides, ALT, and AST were determined in the serum on a Modular P chemistry analyzer (Roche Diagnostics, Risch-Rotkreuz, Switzerland) by the University of Washington Nutrition and Obesity Research Center's Analytic Core (Seattle, WA, USA).

Series [6] deals with T3, human V2 receptor (Homo sapiens, UniProt P30518).
T3 construct: expressed in transfected cells; host or cells: CHO
T3 sequence (P30518 whole entry): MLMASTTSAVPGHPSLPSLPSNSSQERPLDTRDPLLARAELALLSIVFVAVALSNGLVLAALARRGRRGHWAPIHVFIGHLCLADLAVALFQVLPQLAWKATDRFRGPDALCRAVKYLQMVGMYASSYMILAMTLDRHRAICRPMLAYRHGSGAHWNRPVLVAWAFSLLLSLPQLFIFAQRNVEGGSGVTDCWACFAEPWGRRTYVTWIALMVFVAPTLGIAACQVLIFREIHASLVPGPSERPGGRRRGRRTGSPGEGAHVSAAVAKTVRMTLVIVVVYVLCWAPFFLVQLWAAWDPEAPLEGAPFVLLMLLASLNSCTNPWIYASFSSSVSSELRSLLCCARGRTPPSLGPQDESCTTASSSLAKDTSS
As to the kind of experiment: cAMP production (HTRF) agonist assay at human V2 receptor. Conditions: stably transfected CHO cells, read-out: hV2R, EC50. The class given is cell-based. As for the experimental part: In Vitro Functional Assay measuring V2R Evaluation of the agonist activity of ASK2131 at the human V2 receptor expressed in stably transfected CHO cells was conducted by measuring its effects on cAMP production using the HTRF detection method. The cells were suspended in HBSS buffer (Invitrogen, Carsbad, CA) complemented with 20 mM HEPES (pH 7.4), 0.010% BSA and 500 μM IBMX, then distributed in microplates at a density of […] cells/well and incubated for 30 min at room temperature in the absence (control) or presence of the test compound or the reference agonist.
For stimulated control measurement, separate assay wells contained 1 nM AVP. Following incubation, the cells were lysed, and the fluorescence acceptor (D2-labeled cAMP) and fluorescence donor (anti-cAMP antibody labeled with europium cryptate) were added. After 60 min at room temperature, the fluorescence transfer was measured at γ ex=337 nm and γ em=620 and 665 nm using a microplate reader (Envision, Perkin Elmer). The cAMP concentration was determined by dividing the signal measured at 665 nm by that measured at 620 nm (ratio).
The results were expressed as a percent of the control response to 1 nM AVP. The standard reference agonist was AVP, which was tested in each experiment at several concentrations to generate a concentration-response curve from which its EC50 value was calculated.
A general note: Cyclic AMP is a second messenger, typically raised through Gs and lowered through Gi signalling.

Setting [7] is: serum 2 h post final injection, 22 days sc, mean ± SEM, OXT n=4.

Compound `CCCCCCCCCCCCCCCC(=O)NCCOCCOCCOCCOCCOCCOCCOCCOCCC(=O)NCCCC[C@H](NC(=O)CNC(=O)[C@@H]1CCSCCC(=O)N[C@@H](Cc2ccc(O)cc2)C(=O)N[C@@H]([C@@H](C)CC)C(=O)N[C@@H](CCC(N)=O)C(=O)N[C@@H](CC(N)=O)C(=O)N1)C(=O)NCC(N)=O` [ASK2131] (YIQN[hCys]GK([PEG8-Palmitoyl])G-NH2; linker N-5 via X1) gave a T1/2 in series [1] of 2.30 h. In addition, the Tmax was determined as 4.00 h in series [1] and 4 h in series [1] (plasma, read-out: Tmax). The “free Cmax” value in series [1] (4 hours post-dose) is 0.5 nM. Besides, the half-life in series [1] (plasma) is 2.3 h. In addition, the clearance in series [1] (plasma, read-out: CLplasma) was determined as 1.2 mL/min/kg. Also, in series [1] (plasma, read-out: Vd, steady-state volume of distribution), the Vd was determined as 0.8 L/kg. In addition, the concentration in series [1] (total plasma concentration, 4 hours post-dose) peaked (Cmax at 4 h) at 276 nM. Also, the “adverse effects caused by the activation of V2R” value in series [2] is “No adverse effects caused by the activation of V2R were observed”. The EC50 in series [3] is 1.1 nM; in series [4], greater than 1000 nM; in series [6] it was 0.36 nM. In addition, the “Ratio OXTR/V2R/” value in series [3] (ratio of EC50 values) amounted to 3.06. Further, the “glucose, triglyceride, ALT, and AST levels” value in series [5] (22 days, in words) is “No significant differences”. Moreover, in series [5] (setting [7]), the ALT came out at 26 ± 2 U/L. Also, the AST in series [5] (setting [7]) was found to be 73 ± 8 U/L.
